For one assay, the system named is CoA-IT. The assay is described as follows: Assay (b): CoA-IT activity in U937 cell microsomes. The assay is classed as biochemical, human.
For a further assay, the system named is human neutrophils. The assay is described as follows: Assay (c): Arachidonic acid release assay, A23187-stimulated neutrophils. The assay is classed as cell-based. The following applies: at levels greater than 10 uM. The procedure: Human neutrophils are obtained in the laboratory using three different methods. One method uses leukophoresis packs from normal humans and neutrophils are isolated using the histopaque-1077 technique. The blood is centrifuged at 300×g for 10 minutes. The cell pellets are resuspended in PBS composed of 137 mM NaCl, 8.8 mM Na2HPO4, 1.5 mM KH2PO4, 2.7 mM KCI (Dulbecco's Gibco Laboratories, Long Island, N.Y.) and layered over histopaque-1077 (Sigma, St. Louis, Mo.). The pellets are collected after centrifugation (300×g for 30 minutes) and washed once in PBS. The cell pellets are exposed briefly to deionized water to lyse any erythrocytes. The remaining cells are collected by centrifugation, suspended in PBS, counted and identified after cytospinning and staining. The final leukocyte preparation will be of greater than 95% purity and viability.
The second method isolates human neutrophils from fresh heparinized normal blood using the Histopaque-1077 technique. […] The remaining cells are collected by centrifugation, suspended in PBS, counted and identified after cytospinning and staining. […]
The third method isolates human neutrophils from freshly drawn heparinized normal blood using the Percoil technique. […] The neutrophils are suspended in PBS, counted and identified after cytospinning and staining. […]

A further assay has as its target T1, rh Type II-14 kDa PLA2 (Homo sapiens, UniProt P14555).
T1 sequence (P14555 21-144): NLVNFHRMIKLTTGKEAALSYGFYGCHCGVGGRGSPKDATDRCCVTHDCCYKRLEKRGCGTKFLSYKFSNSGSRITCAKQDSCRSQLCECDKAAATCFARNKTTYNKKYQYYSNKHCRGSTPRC
The assay is described as follows: Assay (a): Phospholipase A2 assay, acylhydrolysis of [3H]-AA-E. coli. Format: biochemical. The conditions noted are these: generally tested at 50 μm levels. On the procedure: Phospholipase A2 activity of rh Type II-14 kDa PLA2 or PLA2 semi-purified from human synovial joint fluid was measured by the acylhydrolysis of high specific activity (NEN)[^3 H]-AA-E. coli (0.5 mCi/5nmol PL Pi) as previously described in Marshall et at., J. Rheumatology, 18:1, pp59-65 (1991). […] [Predominately used herein was rh Type II 14 kDa PLA2, or alternatively bovine pancreatic PLA2 was also be used]. The reaction mixture ([…] total volume) contained 25 mM HEPES, pH 7.4, 150 mM NaCl, 5 mM CaCl2 and [^3 H]-AA-E. coli (low specific activity; 5-8 nmol PL Pi per assay). Assays were incelbated for a time predetermined to be on the linear portion of a time versus hydrolysis plot. Experiments were conducted with final % hydrolysis values ranging from 2% (400-1000 dpm) to 10% (2000-5000 dpm) acylhydrolysis after blank correction. Reactions were terminated by the addition of 1.0 mL tetrahydrofuran (THF). […] Radiolabel in this eluate was quantitated by liquid scintillation counting. Results were expressed as % of fatty acid hydrolyzed ([sample dpms-non-specific (blank) dpms/total dpms]×100) or specific activity which was calculated from hydrolysis values found in the linear portion of time versus % hydrolysis plots (pmol free fatty acid hydrolyzed mg/min). […]

This is an account of results in US5496855A, “Anti-inflammatory compounds” (SmithKline Beecham Corp., priority 1995, dated 1996).

The structures appear in SMILES notation.

From the text for CoA-IT: The following is a method to measure CoA-IT activity and the effects of compounds on CoA-IT activity. The assay is based upon mixing cellular material containing CoA-IT activity with a stable lyso phospholipid such as 1-alkyl-2-acyl-GPC and measuring the production of phospholipid product such as 1-alkyl-2-acyl-GPC occurring in the absence of added CoA or CoA-fatty acids.
Any inflammatory cell that contains high levels of CoA-IT activity can be used, such as neutrophils, macrophages or cell lines such as U937 cells. U937 cells were obtained from American Type Culture Collection and grown in RPMI-1640 media (Gibco, Grand Island, N.Y.) supplemented with 10% fetal bovine serum (Hyclone, Logan, Utah) at 37° C., 5% CO2. Cells were grown without differentiation (basal state) by any agent, such as dimethyl sulfoxide. As used herein, "inflammatory cells" include, but are not limited to neutrophils, macrophages, monocytes, lymphocytes, eosinophils, basophils, and mast cells.
Microsomes are prepared using standard techniques. […]
CoA-IT activity is measured in 1.5 ml centrifuge tubes in a total volume of 100 ul. […] An aliquot of the chloroform-extracted materials are separated, usually by TLC in chloroform/methanol/acetic acid/water (50:25:8:4, v/v), visualized by radioscanning (Bioscan) and the product, [3H ]1-alkyl-2-acyl-GPC, is scraped and quantified by liquid scintillation spectroscopy. […]

`N#CCC(CSc1ccc(Cc2ccccc2)cc1)NC(=O)CCCCCCc1ccccc1` (stereo not drawn) [Example 2, [3-(7-Phenylheptylamido)-4-(4-phenylmethyl)phenylthio]butylnitrile]: in the assay with CoA-IT (at levels of greater than 30 uM), the CoA-IT inhibitory activity result is “did not demonstrate positive activity”. Besides, the “inhibitory activity in arachidonic acid release assay” value with human neutrophils is “weak inhibitory activity”. Also, the PLA2 inhibition result on rh Type II-14 kDa PLA2 is recorded as “positive PLA2 inhibition”.

Take `NC(=O)N(O)CCC(CSc1ccc(Cc2ccccc2)cc1)NC(=O)CCCCCCc1ccccc1` (racemic) [Example 1, N-[3-(7-phenylheptylamido)-4-(4-phenylmethyl)phenylthio]-butyl-N-hydroxy urea]: the CoA-IT inhibitory activity entry in the assay with CoA-IT (generally tested at 50 μm levels) was “positive CoA-IT inhibitory activity”. In the assay on human neutrophils, the “inhibitory activity in arachidonic acid release assay” value was “weak inhibitory activity”. For the same compound, the PLA2 inhibition entry on rh Type II-14 kDa PLA2 is “positive PLA2 inhibition”.
